Assay results published in PubChem BioAssay AID1199 (EPA DSSTox, 2008).
Calls of active or inactive are those of the source.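 The calls were made as follows: active = a tumour-causing dose and a tumour site recorded for mice in at least one sex group; inconclusive = only government mouse studies exist and were judged inadequate; inactive = mouse studies exist but none gave tumours.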

System: mouse carcinogenicity bioassay, TD50 from CPDB
Assay: DSSTox (CPDBAS) Carcinogenic Potency Database Summary Mouse Bioassay Results
Conditions: for Potency: TD50_Mouse_Note: TD50 is harmonic mean of more than one positive test
Method in brief: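 Chronic long-term mouse cancer bioassays from literature and NCI/NTP, compiled per sex. TD50 is the standardized carcinogenic potency, using the most positive experiment per sex-species; target sites follow author opinion.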

## CCC1(c2ccccc2)C(=O)NC(=O)NC1=O
Harmonic mean of TD50 includes a value for upper 99% confidence li, TargetSites_Mouse_Female: liver
  Potency: 0.0317 mmol/kg/day

## CC(C)CCC[C@@H](C)[C@H]1CC[C@H]2[C@@H]3CC=C4C[C@@H](OC(=O)Cc5ccc(N(CCCl)CCCl)cc5)CC[C@]4(C)[C@H]3CC[C@]12C
TargetSites_Mouse_Female: hematopoietic system, lung, myocardium
  Potency: 0.000955 mmol/kg/day

## C=C(C)[C@H]1Cc2c(ccc3c2O[C@@H]2COc4cc(OC)c(OC)cc4[C@@H]2C3=O)O1
TD50_Mouse_Note: no positive results, TargetSites_Mouse_Female: no positive results
  outcome: inactive; no positive results
